Experimental data published in ChEMBL document CHEMBL3774317, “Design and synthesis of novel tamoxifen analogues that avoid CYP2D6 metabolism” (Eur J Med Chem, 2016).

Tests used:
Format in all cases: functional
[1] = Cytotoxicity against human HOP92 cells assessed as growth inhibition after 48 hrs by SRB assay; details: HOP-92, 48 h; for CC50: read-out: LC50 (the source's name)
SN12C = test: Cytotoxicity against human SN12C cells assessed as growth inhibition after 48 hrs by SRB assay
NCI-H226 = test: Cytotoxicity against human NCI-H226 cells assessed as growth inhibition after 48 hrs by SRB assay; details: NCI-H226, 48 h
A549 = test: Cytotoxicity against human A549 cells assessed as growth inhibition after 48 hrs by SRB assay; details: A549, 48 h
[2] = Cytotoxicity against human HOP62 cells assessed as growth inhibition after 48 hrs by SRB assay; details: HOP-62, 48 h
[3] = Cytotoxicity against human RPMI8226 cells assessed as growth inhibition after 48 hrs by SRB assay; details: RPMI-8226, 48 h
MCF7 = test: Cytotoxicity against human MCF7 cells assessed as growth inhibition after 48 hrs by SRB assay; details: MCF7, 48 h; for CC50: read-out: LC50 (the source's name)
KM12 = test: Cytotoxicity against human KM12 cells assessed as growth inhibition after 48 hrs by SRB assay; details: KM12, 48 h
NCI-H460 = test: Cytotoxicity against human NCI-H460 cells assessed as growth inhibition after 48 hrs by SRB assay; details: NCI-H460, 48 h; for CC50: read-out: LC50 (the source's name)
[4] = Cytotoxicity against human SNB75 cells assessed as growth inhibition after 48 hrs by SRB assay; details: SNB-75, 48 h
Malme-3M = test: Cytotoxicity against human MALME-3M cells assessed as growth inhibition after 48 hrs by SRB assay; details: for CC50: read-out: LC50 (the source's name)
[5] = Cytotoxicity against human NCI-ADR-RES cells assessed as growth inhibition after 48 hrs by SRB assay; details: for CC50: read-out: LC50 (the source's name)
[6] = Cytotoxicity against human UO31 cells assessed as growth inhibition after 48 hrs by SRB assay; details: UO-31, 48 h; for CC50: read-out: LC50 (the source's name)
[7] = Cytotoxicity against human SW620 cells assessed as growth inhibition after 48 hrs by SRB assay; details: SW-620, 48 h
[8] = Cytotoxicity against human RXF393 cells assessed as growth inhibition after 48 hrs by SRB assay; details: RXF 393, 48 h; for CC50: read-out: LC50 (the source's name)
[9] = Cytotoxicity against human UACC62 cells assessed as growth inhibition after 48 hrs by SRB assay; details: UACC-62, 48 h; for CC50: read-out: LC50 (the source's name)
NCI-H23 = test: Cytotoxicity against human NCI-H23 cells assessed as growth inhibition after 48 hrs by SRB assay; details: NCI-H23, 48 h; for CC50: read-out: LC50 (the source's name)
T47D = test: Cytotoxicity against human T47D cells assessed as growth inhibition after 48 hrs by SRB assay
U-251 = test: Cytotoxicity against human U251 cells assessed as growth inhibition after 48 hrs by SRB assay; details: U-251, 48 h
[10] = Cytotoxicity against human UACC257 cells assessed as growth inhibition after 48 hrs by SRB assay; details: UACC-257, 48 h
K562 = test: Cytotoxicity against human K562 cells assessed as growth inhibition after 48 hrs by SRB assay; details: K562, 48 h
[11] = Cytotoxicity against human TK10 cells assessed as growth inhibition after 48 hrs by SRB assay; details: TK-10, 48 h
ACHN = test: Cytotoxicity against human ACHN cells assessed as growth inhibition after 48 hrs by SRB assay
[12] = Cytotoxicity against human SF268 cells assessed as growth inhibition after 48 hrs by SRB assay; details: SF-268, 48 h
[13] = Cytotoxicity against human HCC2998 cells assessed as growth inhibition after 48 hrs by SRB assay; details: HCC 2998, 48 h; for CC50: read-out: LC50 (the source's name)
SK-MEL-5 = test: Cytotoxicity against human SK-MEL-5 cells assessed as growth inhibition after 48 hrs by SRB assay; details: SK-MEL-5, 48 h; for CC50: read-out: LC50 (the source's name)
[14] = Cytotoxicity against human OVCAR3 cells assessed as growth inhibition after 48 hrs by SRB assay; details: OVCAR-3, 48 h
[15] = Cytotoxicity against human Caki1 cells assessed as growth inhibition after 48 hrs by SRB assay; details: CAKI-1, 48 h
[16] = Cytotoxicity against human Hs 578T cells assessed as growth inhibition after 48 hrs by SRB assay; details: for CC50: read-out: LC50 (the source's name)
[17] = Cytotoxicity against human HCT116 cells assessed as growth inhibition after 48 hrs by SRB assay; details: HCT-116, 48 h
[18] = Cytotoxicity against human BT549 cells assessed as growth inhibition after 48 hrs by SRB assay; details: BT-549, 48 h; for CC50: read-out: LC50 (the source's name)
[19] = Cytotoxicity against human MOLT4 cells assessed as growth inhibition after 48 hrs by SRB assay; details: MOLT-4, 48 h
EKVX = test: Cytotoxicity against human EKVX cells assessed as growth inhibition after 48 hrs by SRB assay

## C/C(=C(/c1ccc(O)cc1)c1ccc(OCCN2CCCC2)cc1)c1ccccc1
[1]
  GI50: 2.24 µM
  TGI: 7.34 µM
  CC50: 31.2 µM
SN12C
  GI50: 9.17 µM
  LC50 (concentration killing 50% of cells): 68.7 µM
  TGI: 25.7 µM
NCI-H226
  GI50: 11.3 µM
  LC50 (50% lethal concentration): 79 µM
  TGI: 29.8 µM
A549
  GI50: 3.53 µM
  LC50: 35 µM
  TGI: 11 µM
[2]
  GI50: 2.1 µM
  LC50 (concentration giving 50% net cell kill): 9.84 µM
  TGI: 4.54 µM
[3]
  GI50: 2.4 µM
  LC50: 65 µM
  TGI: 6.72 µM
MCF7
  GI50: < 0.01 µM
  TGI: 2.72 µM
  CC50: 14 µM
KM12
  GI50: 3.51 µM
  LC50 (concentration giving 50% net cell kill): 41.5 µM
  TGI: 13.2 µM
NCI-H460
  GI50: 2.36 µM
  TGI: 5.38 µM
  CC50: 16.9 µM
[4]
  GI50: 3.07 µM
  LC50: 42.2 µM
  TGI: 15.7 µM
Malme-3M
  GI50: 1.7 µM
  TGI: 3.41 µM
  CC50: 6.84 µM
[5]
  GI50: 4.17 µM
  TGI: 18.3 µM
  CC50: 61.5 µM
[6]
  GI50: 1.87 µM
  TGI: 5.72 µM
  CC50: 23.7 µM
[7]
  GI50: 2.28 µM
  LC50: 15.3 µM
  TGI: 5.16 µM
[8]
  GI50: 2 µM
  TGI: 5.05 µM
  CC50: 19.8 µM
[9]
  GI50: 2.26 µM
  TGI: 4.72 µM
  CC50: 9.84 µM
NCI-H23
  GI50: 4.31 µM
  TGI: 18.2 µM
  CC50: 50.8 µM
T47D
  GI50: 0.716 µM
  LC50: 53.7 µM
  TGI: 7.93 µM
U-251
  GI50: 2.24 µM
  LC50 (50% lethal concentration): 18 µM
  TGI: 5.49 µM
[10]
  GI50: 2.03 µM
  LC50: 7.61 µM
  TGI: 3.93 µM
K562
  GI50: 1.81 µM
  LC50: 23.6 µM
  TGI: 4.77 µM
[11]
  GI50: 4.61 µM
  LC50: 40.7 µM
  TGI: 16.4 µM
ACHN
  GI50: 4.28 µM
  LC50 (concentration causing 50% net cell kill): 44.1 µM
  TGI: 16.3 µM
[12]
  GI50: 5.58 µM
  LC50: 55.2 µM
  TGI: 20.7 µM
[13]
  GI50: 2.34 µM
  TGI: 6.18 µM
  CC50: 28.5 µM
SK-MEL-5
  GI50: 1.72 µM
  TGI: 3.1 µM
  CC50: 5.59 µM
[14]
  GI50: 5.66 µM
  LC50: 42.5 µM
  TGI: 18.1 µM
[15]
  GI50: 3.02 µM
  LC50: 37.3 µM
  TGI: 13.9 µM
[16]
  GI50: 2.96 µM
  TGI: 9.9 µM
  CC50: > 100 µM
[17]
  GI50: 2.92 µM
  LC50: 32.6 µM
  TGI: 10.1 µM
[18]
  GI50: 4.2 µM
  TGI: 15.7 µM
  CC50: 39.6 µM
[19]
  GI50: 2.94 µM
  LC50: 67.2 µM
  TGI: 11 µM
EKVX
  GI50: 2.46 µM
  LC50: 33.9 µM
  TGI: 11.5 µM

## CCCCCCCCCC(=O)Oc1ccc(/C(=C(/C)c2ccccc2)c2ccc(OCCN3CCCC3)cc2)cc1
[1]
  GI50: 7.01 µM
  TGI: 15.4 µM
  CC50: 33.8 µM
SN12C
  GI50: 9.15 µM
  LC50 (concentration killing 50% of cells): 35.1 µM
  TGI: 17.9 µM
NCI-H226
  GI50: 9.42 µM
  LC50 (50% lethal concentration): 36.4 µM
  TGI: 18.5 µM
A549
  GI50: 9.35 µM
  LC50: 33.4 µM
  TGI: 17.7 µM
[2]
  GI50: 8.75 µM
  LC50 (concentration giving 50% net cell kill): 34.1 µM
  TGI: 17.3 µM
[3]
  GI50: 9.13 µM
  LC50: 48.5 µM
  TGI: 21 µM
MCF7
  GI50: < 5 µM
  TGI: 10.3 µM
  CC50: 28 µM
KM12
  GI50: 8.79 µM
  LC50 (concentration giving 50% net cell kill): 31.7 µM
  TGI: 16.7 µM
NCI-H460
  GI50: 8.46 µM
  TGI: 15.9 µM
  CC50: 29.9 µM
[4]
  GI50: 6.55 µM
  LC50: 27.9 µM
  TGI: 13.5 µM
Malme-3M
  GI50: 7.76 µM
  TGI: 15.7 µM
  CC50: 31.9 µM
[5]
  GI50: 8.03 µM
  TGI: 16.8 µM
  CC50: 35.4 µM
[6]
  GI50: 6.72 µM
  TGI: 14.2 µM
  CC50: 29.8 µM
[7]
  GI50: 8.57 µM
  LC50: 28.5 µM
  TGI: 15.6 µM
[8]
  GI50: 6.95 µM
  TGI: 14.1 µM
  CC50: 28.8 µM
[9]
  GI50: 9.18 µM
  TGI: 16.8 µM
  CC50: 30.9 µM
NCI-H23
  GI50: 7.74 µM
  TGI: 16.1 µM
  CC50: 33.4 µM
T47D
  LC50: 39.9 µM
  TGI: 14.4 µM
U-251
  GI50: 8.01 µM
  LC50 (50% lethal concentration): 29.8 µM
  TGI: 15.4 µM
[10]
  GI50: 9.23 µM
  LC50: 30.6 µM
  TGI: 16.8 µM
K562
  LC50: 36.2 µM
  TGI: 16.2 µM
[11]
  GI50: 8.86 µM
  LC50: 31.3 µM
  TGI: 16.7 µM
ACHN
  GI50: 8.16 µM
  LC50 (concentration causing 50% net cell kill): 29.3 µM
  TGI: 15.5 µM
[12]
  GI50: 8.16 µM
  LC50: 36.3 µM
  TGI: 17.2 µM
[13]
  GI50: 8.66 µM
  TGI: 17.2 µM
  CC50: 34.3 µM
SK-MEL-5
  GI50: 8.13 µM
  TGI: 14.9 µM
  CC50: 27.3 µM
[14]
  GI50: 8.18 µM
  LC50: 31.6 µM
  TGI: 16.1 µM
[15]
  GI50: 6.77 µM
  LC50: 28.7 µM
  TGI: 13.9 µM
[16]
  GI50: 9.55 µM
  TGI: 32.2 µM
  CC50: > 50 µM
[17]
  GI50: 8.01 µM
  LC50: 30.6 µM
  TGI: 15.7 µM
[18]
  GI50: 8.22 µM
  TGI: 16.8 µM
  CC50: 34.5 µM
[19]
  GI50: 8.61 µM
  LC50: 47.7 µM
  TGI: 20.3 µM
EKVX
  GI50: 6.92 µM
  LC50: 26.6 µM
  TGI: 13.6 µM
